Source: US6197822A, “Neuropeptide antagonists” (Pfizer Inc., priority 2000, dated 2001)

Target: T1, recombinant human NPY 5 receptors (Homo sapiens, UniProt Q15761)
T1 construct: made in house; host or cells: Sf9 insect cells, baculovirus-infected (membranes)
T1 sequence (Q15761 1-445): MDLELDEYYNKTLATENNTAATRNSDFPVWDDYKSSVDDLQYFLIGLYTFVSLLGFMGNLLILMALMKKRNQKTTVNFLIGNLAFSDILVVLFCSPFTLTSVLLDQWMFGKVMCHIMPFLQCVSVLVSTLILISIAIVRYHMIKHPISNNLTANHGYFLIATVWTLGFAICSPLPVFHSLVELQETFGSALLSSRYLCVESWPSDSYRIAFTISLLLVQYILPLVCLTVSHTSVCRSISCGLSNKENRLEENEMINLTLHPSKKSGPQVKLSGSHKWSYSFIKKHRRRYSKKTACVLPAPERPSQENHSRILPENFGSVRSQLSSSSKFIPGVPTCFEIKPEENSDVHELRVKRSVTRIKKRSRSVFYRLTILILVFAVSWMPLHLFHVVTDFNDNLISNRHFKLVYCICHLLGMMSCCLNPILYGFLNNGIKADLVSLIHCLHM
Experiment: [125I]PYY binding at human NPY5 receptors expressed in Sf9 cells
Details: [125I]PYY(porcine) displacement, membranes of baculovirus-infected Sf9 cells; read-out: Ki (binding constants in the NPY5)
Protocol: [^125 I]PYY Binding at Human NPY Receptors Expressed in Sf9 Cells
Baculovirus-infected Sf9 cells expressing recombinant human NPY 5 receptors are harvested at 48 hours. At the time of harvest, cell pellets are resuspended in lysis buffer (20 mM Tris-HCl, pH 7.4, 5 mM EDTA, 0.5 μg/ml leupeptin, 2 μg/ml Aprotonin and […]) and homogenized using a Polytron (setting 3, 25-30 seconds). Homogenates are centrifuged at 4° C. for 5 minutes at 200 x g ([…]) to pellet the nuclei. The supernatant is collected into a fresh tube and centrifuged at 48,000 x g for 10 minutes. Pellets are washed once in lysis buffer and centrifuged. The final pellet is resuspended in PBS and stored in aliquots at -80° C. Purified membranes are washed using PBS and resuspended in binding buffer (50 mM Tris(HCl), pH 7.4, 5 mM KCl, 120 mM NaCl, 2 mM CaCl2, 1 mM MgCl2, 0.1% bovine serum albumin (BSA)). Membranes (20 μg/reaction tube) are added to polypropylene tubes containing 0.035 nM [^125 I]PYY(porcine), displacers ranging from 10^-12 M to 10^-5 M, and buffer to yield a final volume of 0.5 mL. Nonspecific binding is determined in the presence of 1 μM NPY(human) and accounts for 10% of total binding. Following a 2 hour incubation at room temperature, the reaction is terminated by rapid vacuum filtration. […] IC50 values were calculated with the non-linear curve fitting program RS/1 (SigmaPlot, Jandel).

Row | Ki [nM] | SMILES
1 | 800 | Cc1ccc(NC(=O)C(c2ccccc2)c2ccccc2)cc1 [--CH3]
2 | 8 | CCN(CC)c1ccc(NC(=O)C(c2ccccc2)c2ccccc2)cc1 [--N(C2 H5)2]
